Where two headings read alike, the source gives them in different places. *1 amine or outer side, *2 acyl side, *3 side chain or, on linkers, in order; H or OH if unused. Where a SMILES comes first, the peptide text is derived from it. Bridges are numbered along the chain shown (N, C = ends). [ ]: non-standard residue; d: D form. Hexamethylenediamine = C(CCCN[*:2])CCN[*:1]; NH(CH2)5NH = C(CCN[*:1])CCN[*:2]; Cit = NC(=O)NCCC[C@H](N)C(=O)O; X1 = O=C(CN[*:1])NCCN[*:2]
How the values were obtained:
[1] = Circular dichroism, alpha-helical content of peptides; format: physicochemical; settings: 30% aqueous trifluoroethanol
Description: Circular dichroism spectra were obtained using a Jasco Model J-710 spetropolarimeter at 20° C. using the following parameters: path length, 2 mm; step resolution, 0.1 nm; speed, 20 nm/min; accumulation, 4; response, 1 second; bandwidth, 1.0 nm. The peptides were analysed at a concentration of 0.5 mg/mL in 30% aqueous TFE. The alpha-helical content of the peptides were determined by methods described in Yang et al (1986), involving comparisons of spectra with model helical peptides.

Bcl-2 ΔC22 = Bcl-2 ΔC22 (Homo sapiens, UniProt P10415); experiment: Competition assay using biotinylated Bim-BH3 peptide, Bcl-2 ΔC22; format: binding; settings: for IC50: competition with biotinylated Bim-BH3 peptide; for affinity for Bcl-2 and Bcl-xL over the unconstrained 12-mer, in words: compared to the unconstrained 12-mer
Excerpt: The results are shown below:

[2] = target: T1, 6-His tagged Bcl w delta C10 protein (Homo sapiens, UniProt Q92843); experiment: Alphascreen competition with Bim26mer, Hexa-His detection system; format: binding; settings: competition with biotinylated Bim-BH3 peptide; read-out: IC50 (nM) Bcl-w ΔC10
T1 sequence (Q92843 1-183 limits assumed): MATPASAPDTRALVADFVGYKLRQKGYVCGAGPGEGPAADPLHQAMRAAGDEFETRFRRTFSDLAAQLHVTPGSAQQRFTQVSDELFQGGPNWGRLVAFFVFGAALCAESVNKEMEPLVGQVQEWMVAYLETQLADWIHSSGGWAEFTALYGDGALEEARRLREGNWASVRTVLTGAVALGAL
Excerpt: Alphascreen (Amplified Luminsecent Proximity Homogenous Assay) is a bead based technology which measures a biological interaction between molecules. The assay consists of two hydrogel coated beads which, when bought into close proximity by a binding interaction, allow a transfer of singlet oxygen from a donor bead to an acceptor bead.
Upon binding a photosensitiser in the donor bead converts ambient oxygen to a more excited singlet state. This singlet oxygen then diffuses across to react with a chemiluminescer in the acceptor bead. Fluorophores within the same bead are activated, resulting in the emission of light.
Screening of the conformationally constrained peptides was performed using the Hexa-His detection system. Non biotinylated peptides dissolved in DMSO were titrated into the assay which consisted of 6-His tagged Bcl w delta C10 protein (24 nM Final concentration) and Biotinylated Bim BH3-26 peptide, Biotin-[…] [SEQ ID NO: 40] (1.5 nM Final concentration). To this reaction mix 6His tagged (Nickel Chelate) acceptor beads and Streptavidin coated donor beads, both at 10 ug/ml Final concentration, were added.
Assay buffer contained 50 mM Hepes pH 7.4, 10 mM DTT, 100 mM NaCl, 0.05% Tween and 1 mg/ml BSA. Bead dilution buffer contained 50 mM Tris, pH 7.5, 0.01% Tween and 1 mg/ml BSA. The final DMSO concentration in the assay was 1%. Assays were performed in 384 well white Optiplates and analysed on the Perkin Elmer Fusion plate reader (Ex680, Em520-620 […]).

[3] = target: T2, GST tagged Bcl w delta C29 protein (Homo sapiens, UniProt Q92843); experiment: Alphascreen competition with Bim26mer, GST detection system; format: binding; settings: for change in binding affinity, in words / decrease in binding affinity: Bcl-w ΔC29, compared to the linear 16-mer
T2 sequence (Q92843 1-164 limits assumed): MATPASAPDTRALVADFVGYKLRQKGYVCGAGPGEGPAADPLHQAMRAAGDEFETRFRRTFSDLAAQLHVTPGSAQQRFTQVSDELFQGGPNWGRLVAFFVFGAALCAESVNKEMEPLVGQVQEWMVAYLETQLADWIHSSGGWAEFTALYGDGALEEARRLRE

[4] = target: GST tagged Bcl w delta C29 protein (UniProt Q92843); experiment: AlphaScreen competition with biotinylated Bim BH3-26 peptide
[5] = competition with biotinylated Bim-BH3 peptide, 12-mers, Example 7, read-out: IC50 (nM) Bcl-w ΔC29
[6] = substituted 16-mers, Example 9, read-out: IC50 nM Bcl-w ΔC29
[7] = Puma and Bmf peptides, Example 10, read-out: IC50 nM Bcl-w ΔC29

With CC[C@H](C)[C@H](NC(=O)[C@@H]1CCC(=O)NCCCCCNC(=O)CC[C@H](NC(C)=O)C(=O)N[C@@H]([C@@H](C)CC)C(=O)N[C@@H](C)C(=O)N[C@@H](CCC(N)=O)C(=O)N[C@@H](CCC(=O)O)C(=O)N[C@@H](CC(C)C)C(=O)N[C@@H](CCCNC(=N)N)C(=O)N1)C(=O)NCC(=O)N[C@@H](CC(=O)O)C(=O)N[C@@H](CCC(=O)O)C(=O)N[C@@H](Cc1ccccc1)C(N)=O [A, Ac-E-IAQELR-E-IGDEF-NH2] (Ac-EIAQELREIGDEF-NH2; linker 1-8 via NH(CH2)5NH) the “% Helicity” value [1] was 33%, the IC50 (Bcl-2 ΔC22) was 26000 nM and the IC50 [2] was 2600 nM. It also gave an IC50 [3, 5] of 1800 nM.

In the case of CC[C@H](C)[C@H](NC(C)=O)C(=O)N[C@@H](C)C(=O)N[C@@H](CCC(N)=O)C(=O)N[C@H]1CCC(=O)NCCCCCCNC(=O)CC[C@@H](C(=O)N[C@@H](Cc2ccccc2)C(N)=O)NC(=O)[C@H](CC(=O)O)NC(=O)CNC(=O)[C@H]([C@@H](C)CC)NC(=O)[C@H](CCCNC(=N)N)NC(=O)[C@H](CCCNC(=N)N)NC(=O)[C@H](CC(C)C)NC1=O [C, Ac-IAQ-E-LRRIGD-E-F-NH2] (Ac-IAQELRRIGDEF-NH2; linker 4-11 via Hexamethylenediamine), the “% Helicity” value [1] is reported as 39%, the “affinity for Bcl-2 and Bcl-xL over the unconstrained 12-mer, in words” value (Bcl-2 ΔC22) is reported as “outstanding increases in affinity” and the IC50 (Bcl-2 ΔC22) is reported as 2600 nM. It also gave an IC50 [2] of 230 nM and an IC50 [3, 5] of 120 nM.

For CC[C@H](C)[C@H](NC(C)=O)C(=O)N[C@@H](C)C(=O)N[C@@H](CCC(N)=O)C(=O)N[C@H]1CCC(=O)NCC(=O)NCCNC(=O)CC[C@@H](C(=O)N[C@@H](Cc2ccccc2)C(N)=O)NC(=O)[C@H](CC(=O)O)NC(=O)CNC(=O)[C@H]([C@@H](C)CC)NC(=O)[C@H](CCCNC(=N)N)NC(=O)[C@H](CCCNC(=N)N)NC(=O)[C@H](CC(C)C)NC1=O [D] (Ac-IAQELRRIGDEF-NH2; linker 4-11 via X1), the “% Helicity” value [1] was 16%, the IC50 (Bcl-2 ΔC22) was 6900 nM and the IC50 [2] was 40 nM. It also gave an IC50 [3, 5] of 160 nM.

In the case of CC[C@H](C)[C@H](NC(C)=O)C(=O)N[C@@H](Cc1c[nH]c2ccccc12)C(=O)N[C@H](C(=O)N[C@@H](C)C(=O)N[C@@H](CCC(N)=O)C(=O)N[C@H]1CCC(=O)NCCCCCNC(=O)CC[C@@H](C(=O)N[C@@H](Cc2ccccc2)C(=O)N[C@@H](CC(N)=O)C(=O)N[C@@H](C)C(N)=O)NC(=O)[C@H](CC(=O)O)NC(=O)CNC(=O)[C@H]([C@@H](C)CC)NC(=O)[C@H](CCCNC(=N)N)NC(=O)[C@H](CCCNC(=N)N)NC(=O)[C@H](CC(C)C)NC1=O)[C@@H](C)CC [E] (Ac-IWIAQELRRIGDEFNA-NH2; linker 6-13 via NH(CH2)5NH), the IC50 ([3]; values repeated in text, read-out: binding of the constrained peptide to Bcl-w) is reported as 0.5 nM.

With CC[C@H](C)[C@H](NC(C)=O)C(=O)N[C@@H](C)C(=O)N[C@@H](CCC(N)=O)C(=O)N[C@H]1CCC(=O)NCCCCCNC(=O)CC[C@@H](C(=O)N[C@@H](Cc2ccccc2)C(N)=O)NC(=O)[C@H](CC(=O)O)NC(=O)CNC(=O)[C@H]([C@@H](C)CC)NC(=O)[C@H](CCCNC(=N)N)NC(=O)[C@H](CCCNC(=N)N)NC(=O)[C@H](CC(C)C)NC1=O [Peptide B, Acetyl-IAQ(E1)LRRIGD(E2)F-amide] (Ac-IAQELRRIGDEF-NH2; linker 4-11 via NH(CH2)5NH) the “% Helicity” value [1] was 28%, the “affinity for Bcl-2 and Bcl-xL over the unconstrained 12-mer, in words” value (Bcl-2 ΔC22) was “outstanding increases in affinity” and the IC50 (Bcl-2 ΔC22) was 290 nM. It also gave an IC50 [2] of 65 nM and an IC50 [3, 5] of 150 nM.

Molecule CC[C@H](C)[C@H](NC(=O)[C@H](C)NC(=O)[C@H](CCC(N)=O)NC(C)=O)C(=O)N[C@@H](C)C(=O)N[C@@H](CCC(N)=O)C(=O)N[C@H]1CCC(=O)NCCCCCNC(=O)CC[C@@H](C(=O)N[C@@H](Cc2ccccc2)C(=O)N[C@@H](CC(N)=O)C(=O)N[C@@H](C)C(N)=O)NC(=O)[C@H](CC(=O)O)NC(=O)CNC(=O)[C@H]([C@@H](C)CC)NC(=O)[C@H](CCCNC(=N)N)NC(=O)[C@H](CCCNC(=N)N)NC(=O)[C@H](CC(C)C)NC1=O [Peptide G, Ac-QAIAQZLRRIGDZFNA-NH2] (Ac-QAIAQELRRIGDEFNA-NH2; linker 6-13 via NH(CH2)5NH) has an IC50 [3] of 2.4 nM.

CC[C@H](C)[C@H](NC(C)=O)C(=O)N[C@@H](Cc1c[nH]c2ccccc12)C(=O)N[C@H](C(=O)N[C@@H](C)C(=O)N[C@@H](CCC(N)=O)C(=O)N[C@@H](CCC(=O)O)C(=O)N[C@@H](CC(C)C)C(=O)N[C@@H](CCCNC(N)=O)C(=O)N[C@@H](CCCNC(N)=O)C(=O)N[C@H](C(=O)NCC(=O)N[C@@H](CC(=O)O)C(=O)N[C@@H](CCC(=O)O)C(=O)N[C@@H](Cc1ccccc1)C(=O)N[C@@H](CC(N)=O)C(=O)N[C@@H](C)C(N)=O)[C@@H](C)CC)[C@@H](C)CC [Peptide T] (Ac-IWIAQEL[Cit][Cit]IGDEFNA-NH2) showed an IC50 [3, 6] of 20 nM.

With Ac-AWIAQELRRIGDEFNA-NH2 [O] the “change in binding affinity, in words” value [3] was “drop in binding” and the IC50 [3, 6] was 22 nM.

For Ac-IAIAQELRRIGDEFNA-NH2 [P], the “change in binding affinity, in words” value [3] was “drop in binding” and the IC50 [3, 6] was 42 nM.

With “Ac-IAQELRRIGDEF-NH2 [Linear 12mer, reference compound]” the “% Helicity” value [1] was 9%, the IC50 (Bcl-2 ΔC22) was 240000 nM and the IC50 [2] was 870 nM. For the same molecule, the IC50 [3, 5] was 4700 nM.

With Ac-IFIAQELRRIGDEFNA-NH2 [N] the “change in binding affinity, in words” value [3] was “drop in binding” and the IC50 [3, 6] was 11 nM.

For Ac-IRIAQELRRIGDEFNA-NH2 [Q], the “change in binding affinity, in words” value [3] was “drop in binding” and the IC50 [3, 6] was 17 nM.

With Ac-IWAAQEARRAGDEANA-NH2 [M] the IC50 [3, 6] was 64000 nM.

In the case of Ac-IWAAQELRRIGDEFNA-NH2 [Peptide I], the “change in binding affinity, in words” value [3] is reported as “slight decrease in binding affinity”, the “decrease in binding affinity” value [3] is reported as 100 fold and the IC50 [3, 6] is reported as 360 nM.

For Ac-IWIAQEARRIGDEFNA-NH2 [Peptide J], the “decrease in binding affinity” value [3] was “about 1000 fold” and the IC50 [3, 6] was 3700 nM.

For Ac-IWIAQELRRAGDEFNA-NH2 [Peptide K], the “decrease in binding affinity” value [3] was 3 fold and the IC50 [3, 6] was 7.3 nM.

With Ac-IWIAQELRRIGDEANA-NH2 [Peptide L] the “decrease in binding affinity” value [3] was 1,000 fold and the IC50 [3, 6] was 3500 nM.

For Ac-IWIAQELRRIGDEFAA-NH2 [Peptide S], the “change in binding affinity, in words” value [3] was “only slight, if any, loss of binding affinity” and the IC50 [3, 6] was 3.3 nM.

Work on Ac-IWIAQELRRIGDEFAN-NH2 [Peptide R] yielded an IC50 [3, 6] of 12 nM.

“Ac-IWIAQELRRIGDEFNA-NH2 [linear 16-mer, reference compound]” showed an IC50 ([3]; competition with biotinylated BIM-BH3 peptide, 16-mers, Example 8, read-out: IC50 (nM) Bcl-w ΔC29) of 2.5 nM.

With Ac-IWIAQELRRIGDEFNN-NH2 [Peptide U] the “decrease in binding affinity” value [3] was “two” and the IC50 [3, 6] was 5.8 nM.

With Ac-IWIAQQLRRIGDQFNA-NH2 [H] the IC50 [3, 6] was 3.3 nM.

Work on Ac-REIGAQLRRMADDLNA-NH2 [Puma] yielded an IC50 [3, 7] of 52 nM.

Ac-VQIARKLQAIADQFHR-NH2 [Bmf] showed an IC50 [3, 7] of 0.25 nM.

Ac-IWAAQELRRIGDEFNA-NH2 [Peptide I (linear), Ac-…-NH2] showed a fold decrease in binding affinity (against the linear 16-mer) [4] of 100 fold.

For Ac-IWIAQEARRIGDEFNA-NH2 [Peptide J (linear), Ac-…-NH2], the fold decrease in affinity (against the linear 16-mer) [4] was 1000 fold.

In the case of Ac-IWIAQELRRAGDEFNA-NH2 [Peptide K (linear), Ac-…-NH2], the fold decrease in affinity (against the linear 16-mer) [4] is reported as 3 fold.

Work on Ac-IWAAQEARRAGDEANA-NH2 [Peptide M (linear), Ac-…-NH2] yielded a fold decrease in binding affinity (against the linear 16-mer) [4] of 25000 fold.

Ac-IWIAQELRRIGDEFNN-NH2 [Peptide U (linear), Ac-…-NH2] showed a fold loss of binding affinity (against the linear 16-mer) [4] of 2 fold.

Work on Ac-IWIAQELRRIGDEANA-NH2 [Peptide L (linear), Ac-…-NH2] yielded a fold decrease in affinity (against the linear 16-mer) [4] of 1000 fold.
